Results as given in patent US7754739B2, “Modulators of CFTR” (Vertex Pharmaceuticals Incorporated, priority 2007, dated 2010).
pEC50: −log10 of the molar value.

Biological target: T1, ΔF508-CFTR (Homo sapiens, UniProt P13569, DEL508-508)
T1 construct: expressed in transfected cells; host or cells: NIH3T3 mouse fibroblasts, stably expressing
Test: Membrane potential optical methods for assaying ΔF508-CFTR modulation properties of compounds
Assay type: cell-based
Details: NIH3T3 cells expressing ΔF508-CFTR
Source text: Assays for Detecting and Measuring ΔF508-CFTR Correction Properties of Compounds
Membrane potential optical methods for assaying ΔF508-CFTR modulation properties of compounds
The optical membrane potential assay utilized voltage-sensitive FRET sensors described by Gonzalez and Tsien (See, Gonzalez, J. E. and R. Y. Tsien (1995) “Voltage sensing by fluorescence resonance energy transfer in single cells” Biophys J 69(4): 1272-80, and Gonzalez, J. E. and R. Y. Tsien (1997) “Improved indicators of cell membrane potential that use fluorescence resonance energy transfer” Chem Biol 4(4): 269-77) in combination with instrumentation for measuring fluorescence changes such as the Voltage/Ion Probe Reader (VIPR) (See, Gonzalez, J. E., K. Oades, et al. (1999) “Cell-based assays and instrumentation for screening ion-channel targets” Drug Discov Today 4(9): 431-439).
These voltage sensitive assays are based on the change in fluorescence resonant energy transfer (FRET) between the membrane-soluble, voltage-sensitive dye, DiSBAC2(3), and a fluorescent phospholipid, CC2-DMPE, which is attached to the outer leaflet of the plasma membrane and acts as a FRET donor. Changes in membrane potential (Vm) cause the negatively charged DiSBAC2(3) to redistribute across the plasma membrane and the amount of energy transfer from CC2-DMPE changes accordingly. The changes in fluorescence emission were monitored using VIPR™ II, which is an integrated liquid handler and fluorescent detector designed to conduct cell-based screens in 96- or 384-well microtiter plates.
1. Identification of Correction Compounds
To identify small molecules that correct the trafficking defect associated with EF508-CFTR; a single-addition HTS assay format was developed. The cells were incubated in serum-free medium for 16 hrs at 37° C. in the presence or absence (negative control) of test compound. As a positive control, cells plated in 384-well plates were incubated for 16 hrs at 27° C. to “temperature-correct” ΔF508-CFTR. The cells were subsequently rinsed 3× with Krebs Ringers solution and loaded with the voltage-sensitive dyes. To activate ΔF508-CFTR, 10 μM forskolin and the CFTR potentiator, genistein (20 μM), were added along with Cl^−-free medium to each well. The addition of Cl^−-free medium promoted Cl^−-efflux in response to ΔF508-CFTR activation and the resulting membrane depolarization was optically monitored using the FRET-based voltage-sensor dyes.
2. […]
To identify potentiators of ΔF508-CFTR, a double-addition HTS assay format was developed. […] The extracellular Cl^−-concentration following both additions was 28 mM, which promoted Cl^−-efflux in response to ΔF508-CFTR activation and the resulting membrane depolarization was optically monitored using the FRET-based voltage-sensor dyes. […]

T1 sequence (P13569 with tags, fused parts or gaps DEL508-508): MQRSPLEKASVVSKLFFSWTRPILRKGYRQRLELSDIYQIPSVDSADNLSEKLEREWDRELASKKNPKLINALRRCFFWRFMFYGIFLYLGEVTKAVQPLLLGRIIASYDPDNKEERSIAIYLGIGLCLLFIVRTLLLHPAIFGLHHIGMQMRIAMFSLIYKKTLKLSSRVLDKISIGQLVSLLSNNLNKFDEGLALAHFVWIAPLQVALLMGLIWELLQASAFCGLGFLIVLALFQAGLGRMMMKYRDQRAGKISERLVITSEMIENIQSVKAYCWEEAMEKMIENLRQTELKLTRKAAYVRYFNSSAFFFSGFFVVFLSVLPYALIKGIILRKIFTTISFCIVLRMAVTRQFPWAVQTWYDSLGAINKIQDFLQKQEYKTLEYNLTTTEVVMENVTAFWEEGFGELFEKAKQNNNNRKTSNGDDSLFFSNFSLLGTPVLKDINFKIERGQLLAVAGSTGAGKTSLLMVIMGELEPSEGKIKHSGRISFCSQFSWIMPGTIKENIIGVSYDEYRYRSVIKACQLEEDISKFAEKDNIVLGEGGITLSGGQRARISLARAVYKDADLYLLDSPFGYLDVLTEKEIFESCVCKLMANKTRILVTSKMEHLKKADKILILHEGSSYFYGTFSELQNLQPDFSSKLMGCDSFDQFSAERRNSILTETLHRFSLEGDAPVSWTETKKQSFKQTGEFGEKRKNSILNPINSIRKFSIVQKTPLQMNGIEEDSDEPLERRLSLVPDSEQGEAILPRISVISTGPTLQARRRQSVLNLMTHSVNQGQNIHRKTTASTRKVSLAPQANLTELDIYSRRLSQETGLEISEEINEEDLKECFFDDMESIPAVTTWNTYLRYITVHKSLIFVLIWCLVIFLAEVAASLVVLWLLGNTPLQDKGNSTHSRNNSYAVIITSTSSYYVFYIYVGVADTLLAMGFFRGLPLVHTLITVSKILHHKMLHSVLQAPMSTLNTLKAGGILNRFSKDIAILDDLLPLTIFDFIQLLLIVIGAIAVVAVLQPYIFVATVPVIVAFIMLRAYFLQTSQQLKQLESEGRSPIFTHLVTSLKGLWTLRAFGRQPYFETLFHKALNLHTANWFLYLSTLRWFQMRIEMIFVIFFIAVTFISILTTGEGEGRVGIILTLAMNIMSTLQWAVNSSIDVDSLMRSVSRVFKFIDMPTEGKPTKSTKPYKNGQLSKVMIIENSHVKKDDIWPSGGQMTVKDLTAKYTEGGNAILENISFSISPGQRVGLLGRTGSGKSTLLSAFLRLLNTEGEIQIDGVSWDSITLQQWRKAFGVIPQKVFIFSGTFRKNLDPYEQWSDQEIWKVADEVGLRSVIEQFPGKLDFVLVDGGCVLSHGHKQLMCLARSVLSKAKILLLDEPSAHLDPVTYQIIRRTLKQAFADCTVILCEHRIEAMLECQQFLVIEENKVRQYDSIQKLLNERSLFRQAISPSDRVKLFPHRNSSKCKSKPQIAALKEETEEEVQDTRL

Row | Structure (SMILES) | pEC50 | Percent Efficacy
1 | COc1ccc(C2(C(=O)Nc3ccc(C)c(-c4cccc(C(=O)O)c4)n3)CC2)cc1 [compound 1] | ≥ 5.70 | +++ (100.0% < +++)
2 | Cc1ccc(NC(=O)C2(c3ccc4c(c3)CCO4)CC2)nc1-c1cccc(C(=O)O)c1 [compound 2] | ≥ 5.70 | +++ (100.0% < +++)
